For data set [1], the system named is A2780/Adr multidrug resistant OC cell line. The data set can be described thus: Activity in multidrug resistant OC cells. The class given is cell-based, human. The settings on record: A2780/Adr overexpresses P-glycoprotein efflux transporters. From the text: (§1) Compounds of Formula I, including NOV202, exerts its action by inhibition of tubulin polymerization and thereby the assembly of microtubule structures, which cause a cell cycle arrest and cell death via apoptosis. […] The A2780/Adr multidrug resistant OC cell line overexpresses the P-glycoprotein efflux transporters which confer multidrug resistance.

Data set [2] deals with ovarian cancer (OC) cell line A2780. The experiment in a line: Anti-proliferative activity in human cancer cell lines. The class given is cell-based. Conditions: A2780 cells.
Description: as §1

Data set [3] deals with patient-derived xenograft Ov10584. The experiment in a line: Anti-tumor efficacy of NOV202 with olaparib vs. plinabulin with olaparib in patient-derived xenograft of ovarian cancer (Example 2). The class given is in vivo. The settings on record: NMRI:nu/nu mice, Ov10584 s.c.; NOV202 30 mg/kg PO and olaparib 100 mg/kg PO once a day days 6-19; plinabulin 7.5 mg/kg i.p. days 1, 4, 8, 11, 15; combinations same dosage and schedule. The source says:
A Study of Anti-Tumor Efficacy of Combination of NOV202 with Olaparib Vs. Combination Plinabulin with Olaparib in a Patient-Derived Xenograft of Ovarian Cancer ([…])
NMRI:nu/nu female (Janvier) mice (8 weeks old) were used as follows: 4 animals in the vehicle group, 4 animals in NOV202 group, olaparib group, plinabulin group, in the combination group of NOV202 and Olaparib, and in the combination group of plinabulin and olaparib, respectively. NOV202 was synthesized as described in WO 2012/127032. Olaparib was purchased from LC Laboratories, and plinabulin was purchased from Sellechem. The patient-derived xenograft Ov10584 was used at passage number 4. All mice received tissue fragments of 2×2 mm subcutaneously into the left flank at day 0, and tumors were allowed to reach palpable sizes of 108 mm^3 (mean) (the study day 6) prior to start the treatments. NOV202 group was administered PO at a dose 30 mg/kg and olaparib group was administered PO at a dose 100 mg/kg, and plinabulin was administered i.p. at a dose 7.5 mg/kg. The combination of NOV202 and olaparib group had the same dosage and schedule as in monotherapy, NOV202 was given in the morning (5 ml/kg) and olaparib in the afternoon (10 ml/kg). The combination of plinabulin and olaparib group had also the same dosage and schedule as in monotherapy. NOV202 and olaparib was administered 14 days once a day (days 6-19), and plinabulin was administered days 1, 4, 8, 11, 15 once a day. The tumor volumes and body weights of animals were measured at regular intervals (day 6, 7, 9, 12, 14, 16, 19, 23, 26 and 29), all groups.

The next data set has as its system human OC xenograft model. The experiment in a line: In vivo efficacy study in a human OC xenograft model. The source says: Development of the tumour vasculature system is essential to tumour growth and metastatic spread of malignant cells. The rationale behind using vasculature targeting agents in anti-cancer therapy is that the cancer cells will be deprived of essential nutrients and oxygen supply for their growth and spread, thereby improving treatment outcome.

The test system of data set [4] is patient-derived xenograft of ovarian cancer (Ov10584). The experiment in a line: Anti-tumor efficacy of NOV202 alone and in combination with olaparib in patient-derived xenograft of ovarian cancer (Example 1). The class given is in vivo. Conditions: for T/C (tumor/control) value: NMRI:nu/nu mice, Ov10584 s.c., once a day for 14 days (days 8-22), combination same dosage and schedule. From the text:
A Study of Anti-Tumor Efficacy of NOV202 Alone and in Combination with Olaparib in a Patient-Derived Xenograft of Ovarian Cancer (Ov10584)
NMRI:nu/nu female (Janvier) mice (8 weeks old) were used as follows: 4 animals in the vehicle group, 4 animals in NOV202 group, Olaparib group and in the combination group of NOV202 and olaparib, respectively. NOV202 was synthesized as described in WO 2012/127032. Olaparib was purchased from LC Laboratories. The patient-derived xenograft Ov10584 was used at passage number 7. All mice received tissue fragments of 2×2 mm subcutaneously at day 0, and tumors were allowed to reach palpable sizes of 118 mm^3 (mean) (the study day 8) prior to start the treatments. NOV202 group was administered PO at a dose 30 mg/kg and olaparib group was administered PO at a dose 100 mg/kg. The combination of NOV202 and olaparib group had the same dosage and schedule as in monotherapy. NOV202 was given in the morning (5 ml/kg) and olaparib in the afternoon (10 ml/kg). All three groups were administered 14 days once a day (days 8-22). The tumor volumes and body weights of animals were measured at regular intervals (day 7, 9, 13, 15, 19, 22, 27, all groups, and continued to measure the combination group day 29, 33, 36, 40, 43, 47, 50, 54, 57).

The mark [5] stands for this setting: NOV202 30 mg/kg PO, olaparib 100 mg/kg PO.

Consider three molecules from patent US11590130B2, “Combinations of a tubulin polymerization inhibitor and a poly (ADP-ribose) polymerase (PARP) inhibitor for use in the treatment of cancer” (NOVIGA RESEARCH AB, priority 2018, dated 2023).

As for `COc1ccc2[nH]cc(CCNc3nccc(Nc4cccc5c4ccn5C)n3)c2c1` [NOV202, N^2-[2-(5-methoxy-1H-indol-3-yl)ethyl]-N^4-(1-methyl-1H-indol-4-yl)pyrimidine-2,4-diamine], in data set [1], the “effectiveness in multidrug resistant versus isogenic non-resistant OC cells” value was “as effective in multidrug resistant OC cells as in the isogenic (drug sensitive variant) non-resistant OC cells”. In addition, the anti-proliferative activity entry in data set [2] is on record as “very potent”. For the same molecule, the “T/C (tumor/control) value” in data set [3] is recorded as 32%; in data set [4] (setting [5]), 37%. Moreover, the “suppression of tumour growth” value with human OC xenograft model (human OC xenograft, similar to paclitaxel in this model) was “up to 80%”. In addition, the tolerability entry is recorded as “well tolerated” in the data set on human OC xenograft model (oral gavage over a period of 20 days) and “well tolerated” in data set [4] (daily treatment for 14 days, NOV202 30 mg/kg PO, olaparib 100 mg/kg PO). Moreover, the body weight loss in data set [4] (one day after treatment stop, 30 mg/kg NOV202 daily for 14 days, mice recovered soon) was found to be 6%.

With `O=C(c1cc(Cc2n[nH]c(=O)c3ccccc23)ccc1F)N1CCN(C(=O)C2CC2)CC1` [olaparib, 4-(3-{[4-(cyclopropylcarbonyl)piperazin-1-yl]carbonyl}-4-fluorobenzyl)phthalazin-1(2H)-one, reference compound], the figures for the “T/C (tumor/control) value” in data set [3] and in data set [4] (setting [5]) were 45% and 20%, respectively.

Turning to `CC(C)(C)c1[nH]cnc1/C=c1\[nH]c(=O)/c(=C/c2ccccc2)[nH]c1=O` [plinabulin, (3Z,6Z)-3-Benzylidene-6-{[5-(2-methyl-2-propanyl)-1H-imidazol-4-yl]methylene}-2,5-piperazinedione], the “T/C (tumor/control) value” in data set [3] came to 58%.
